Measurements reported in PMC4294381, “Metformin repositioning as antitumoral agent: selective antiproliferative effects in human glioblastoma stem cells, via inhibition of CLIC1-mediated ion current” (Oncotarget, 2014).

How the values were obtained:
Format in all cases: cell-based
[1] = biological target: T1, chloride intracellular channel-1 (CLIC1) (Homo sapiens, UniProt O00299, R29A); test: whole-cell patch clamp in transfected CHO cells
T1 construct: FLAG-tagged CLIC1 R29A expressed in CHO cells

[2] = biological target: T2, chloride intracellular channel-1 (CLIC1) (Homo sapiens, UniProt O00299); test: whole-cell patch clamp in transfected CHO cells; set-up: FLAG-tagged CLIC1-wt expressed in CHO cells
[3] = biological target: T2, chloride intracellular channel-1 (CLIC1); test: patch clamp, whole-cell (U87, GBM CSC, CHO expressing human CLIC1) and outside-out single channel
[4] = biological target: T3, chloride intracellular channel-1 (CLIC1) (Homo sapiens, UniProt O00299, K37A); test: whole-cell patch clamp in transfected CHO cells, metformin […]
T3 construct: FLAG-tagged CLIC1 K37A expressed in CHO cells

EC50 [1] [µM]	EC50 [2] [µM]	EC50 [3] [µM]	Structure (SMILES)	whole-cell patch clamp in transfected CHO cells, metformin 10 mM [4]
29.2	27.3	–	CC1(C2CCCC2)Cc2cc(OCC(=O)O)c(Cl)c(Cl)c2C1=O (stereo not shown) [IAA94]	–
–	–	2100	CN(C)C(=N)N=C(N)N [Metformin]	Metformin significantly inhibited membrane current in CLIC1 wt and K37A-transfected cells (Fig. 7A and D)
